Values quoted from earlier work as cited in patent US20130210879A1, “FORMULATIONS OF BENDAMUSTINE” (priority 2012, published 2013).

For `Cn1c(CCCC(=O)O)nc2cc(N(CCCl)CCCl)ccc21` [Bendamustine], the stability in water is listed as “measured in hours”.
